Here are results for one compound from patent US20240124510A1, “Cyclic Glycoaminoacid Derivatives” (TFCHEM, priority 2021, published 2024).

“And” between values parts separate entries of the source, which are not always exact repeats. Equal entries are not always repeated. Where two headings read alike, the source gives them in different places.

Assay [1] concerns Normal human epidermal keratinocytes (NHEK). In words: Lipid peroxidation in NHEK under UV stimulation (C11-fluor probe, flow cytometry). It is filed as cell-based. The conditions noted are these: for % Irradiated control (lipid peroxidation) / % Protection (lipid peroxidation) / C11-fluor 1/GMFI Mean (AU) / C11-fluor 1/GMFI (AU) / C11-fluor GMFI (AU): irradiated UVB 300 mJ/cm^2 (+UVA 2.1 J/cm^2); for C11-fluor 1/GMFI (AU) / C11-fluor GMFI (AU): individual replicates. Here is the method:
Normal human epidermal keratinocytes were seeded in 48-well plates and cultured in culture medium for 24 hours and then in assay medium for a further 24 hours. The medium was then removed and replaced by assay medium containing or not (irradiated control) the test compounds or the reference (BHA—butylated hydroxyanisole, lipid peroxidation inhibitor—at 100 μM) and the cells were pre-incubated for 24 hours. After pre-incubation, the specific fluorescent probe for the measurement of lipid peroxides (C11-fluor) was added and the cells were incubated for 45 minutes. Then, the medium was removed and replaced by assay medium containing or not (irradiated control and test compound conditions) the reference and the cells were irradiated with UVB (+UVA)−300 mJ/cm^2 (+2.1 J/cm^2). The lamp used was a SOL500 Sun Simulator equipped with an H2 filter (Dr. Hbnle. AG). After irradiation, the medium was removed and replaced by assay medium containing or not (irradiated control) the test compounds or the reference and the cells were incubated for 30 minutes before flow cytometry analysis. A non-irradiated control condition was performed in parallel. All experimental conditions were performed in triplicate.
At the end of the incubation, in each well, the cells were trypsinized and transferred into specific tubes for the analysis of C11-fluor fluorescence intensity using a BD FACSVerse™ flow cytometer (acquisition of 2000 to 5000 events per tube). The C11-fluor fluorescent probe is a lipid analogue which integrates cell membranes. As the fluorescence intensity of this probe is decreased with oxidation, it is inversely proportional to the lipid peroxidation. In order to facilitate the result interpretation, the lipid peroxidation was expressed using the value “1/fluorescence intensity” in order to have a direct proportionality between the induction of lipid peroxidation and the values of “% of irradiated control”.
Results presented in Table 24 are expressed as fluorescence intensity and as […] of protection compared to the control.
For orientation: Flow cytometry measures light scatter and fluorescence of single cells or particles in a stream.

The subject of assay [2] is normal human dermal fibroblasts (NHDF). Nature of the assay: Protection of NHDF under UVA irradiation, MTT reduction assay. The assay is classed as cell-based. Here is the method: The protective effects of compound 6 was assessed in normal human dermal fibroblasts (NHDF). The viability of UVA-irradiated NHDF using a standard MTT reduction assay was tested. Prior to these assays, a preliminary cytotoxicity assay was performed on NHDF, using a standard WST-8 reduction assay and morphological observations with a microscope, in order to determine the concentrations to be tested.
• Cell type: NHDF, Bioalternatives reference PF2 used at the 8th passage • Culture conditions: 37° C., 5% CO2 • Culture medium: DMEM supplemented with L-glutamine 2 mM, Penicillin 50 U/ml • Streptomycin 50 μg/ml, Fetal calf serum (FCS) 10% • Irradiation medium: EBSS supplemented with CaCl2 0.2 g/l, MgSO4 0.2 g/l • Test compound: the compound 6 (MM=356.3 g/mol) was diluted in culture medium at final concentration of 1.25 and 2.5 mg/ml
Fibroblasts were seeded in 96-well plates and cultured in culture medium for 24 hours. The medium was then replaced by culture medium containing or not (irradiated control) the test compounds and the cells were pre-incubated for 24 hours. After pre-incubation, the medium was removed and replaced by irradiation medium and the cells were irradiated with 35 J/cm^2. The lamp used was a SOL500 Sun Simulator equipped with an H1 filter (Dr. Hönle, AG). After irradiation, the medium was removed and replaced by assay medium containing or not (irradiated control) the test compounds and the cells were incubated for 24 hours. A non-irradiated control condition was performed in parallel. All experimental conditions were performed in n=5, except for the control conditions in n=12.
At the end of incubation, the cells were incubated with MTT (tetrazolium salt) reduced in blue formazan crystals by succinate dehydrogenase (mitochondrial enzyme). This transformation is proportional to the enzyme activity. After cell dissociation and formazan crystal solubilization using DMSO, the optical density (OD) of the extracts at 540 nm, proportional to the number of living cells and their metabolic activity, was recorded with a microplate reader (VERSAmax, Molecular Devices).
Raw data were analyzed using Microsoft Excel© software. The inter-group comparisons were performed by an unpaired Student's t-test.
The standard error of the mean (sem) is a measure of how far the sample mean is likely to be from the true population mean. The sem is calculated as the standard deviation (sd) divided by the square root of sample size (n). Standard error of the mean: sem=sd/√n Percentage of viability: viability (%)=(OD sample/OD control)×100
The cell viability (OD 540 nm) from irradiated culture added with tested compound was compared with irradiated control culture and the percentage of viability was calculated.

A word on the viability: it is a read-out of living cells in per cent, often relative to untreated cells. As to `N[C@H]1CCCN(CC(F)(F)[C@]2(O)O[C@H](CO)[C@H](O)[C@H](O)[C@H]2O)C1=O` [Compound 6], in assay [1] (1 mg/ml), the “% Irradiated control (lipid peroxidation)” value worked out at 66%; the “% Protection (lipid peroxidation)” value was 37%; the “C11-fluor 1/GMFI Mean (AU)” value came to 5.6E−04 AU; the “C11-fluor 1/GMFI (AU)” value is 4.7E−04 AU and 5.9E−04 AU and 6.2E−04 AU. In addition, the “C11-fluor GMFI (AU)” value in assay [1] (1 mg/ml) was 2118 AU and 1705 AU and 1608 AU. In assay [1] (3 mg/ml), the “% Irradiated control (lipid peroxidation)” value turned out to be 65%; the “% Protection (lipid peroxidation)” value was found to be 38%; the “C11-fluor 1/GMFI Mean (AU)” value is recorded as 5.6E−04 AU; the “C11-fluor 1/GMFI (AU)” value is 4.7E−04 AU and 5.1E−04 AU and 7.0E−04 AU. Moreover, in assay [1] (3 mg/ml), the “C11-fluor GMFI (AU)” value was 2143 AU and 1970 AU and 1426 AU. Besides, in assay [1] (NHEK irradiated with UVB (+UVA) 300 mJ/cm2 (+2.1 J/cm2), concentration not given), the “Protection on lipid peroxidation (compared to the control)” value was found to be 38%. The “Mean OD (540 nm)” value in assay [2] (1.25 mg/ml, UVA 35 J/cm^2, MTT) is recorded as 0.13. Besides, the “Mean OD (540 nm)” value in assay [2] (2.5 mg/ml, UVA 35 J/cm^2, MTT) amounted to 0.15. Moreover, the viability at 1250 µg/mL in assay [2] (Homo sapiens, light or radiation study, 1.25 mg/ml, UVA 35 J/cm^2, MTT, read-out: % Irradiated control (viability)) came to 116%. In assay [2] (Homo sapiens, light or radiation study, 2.5 mg/ml, UVA 35 J/cm^2, MTT, read-out: % Irradiated control (viability)), the viability at 2500 µg/mL was 130%. For the same compound, the viability at 2500 µg/mL in assay [2] (Homo sapiens, light or radiation study, UVA 35 J/cm2, 2.5 mg/ml, read-out: Cell viability, % of the irradiated control) was 130%.
